Measured values: patent US20120244567A1, “HUMAN EMBRYONIC STEM CELLS FOR HIGH THROUGHOUT DRUG SCREENING” (BUCK INSTITUTE FOR RESEARCH ON AGING, priority 2009, published 2012)
Where a name gives a salt, the structure may show the parent alone.

Experiments:
hESC-derived NSCs = assay: ATP assay in hESC-derived NSCs (96-well, primary screen and retest); assay type: cell-based, human; set-up: cytotoxicity: dose or concentration left out as unconfirmed; toxicity to NSCs (reduced ATP concentrations) / ATP levels in NSC population: unit of the concentration uncertain
Experimental: EBs were then cultured for additional 2-3 days in suspension in neural induction media containing DMEM/F12 with Glutamax, 1×NEAA, 1×N2 and FGF2 (20 ng/ml) prior to attachment on cell culture plates. […] To obtain a pure population of NSCs, rosettes were manually isolated and dissociated into single cells using Accutase. The NSCs population was expanded in Neurobasal media containing 1×NEAA, 1×L-Glutamine (2 mM), 1×B27, LIF and FGF2 20 ng/ml.
Media was changed every day for hESCs and every other day for NSCs and additionally changed prior to drug treatment. The cells were treated with compounds from the NINDS library diluted in […] of either ESC or NSC media to a final concentration of 2.5 mM in 0.01% DMSO. […] For all sampling, ESC and NSC plates were processed in parallel for one drug or control condition at a time.
(§1) For ATP measurements, the media was removed, cells were washed 1× in milliQ water and reconstituted in […] ATP-Lite Mammalian Lysis Buffer and shaken for 5 minutes. Two […] aliquots of lysed cells were replated onto separate 96 well plates for later protein measurements.
(§2) To identify compounds that are toxic to hESCs, hESC-derived NSCs, or both, we screened 720 FDA-approved drugs of the NINDS collection by testing the toxicity of each drug at a dose of 2.5 mM. For endpoint measurement of cell death caused by drug toxicity, we used a widely accepted ATP assay that measures changes in ATP level as an indicator of cellular response to cell death. In this assay, total ATP content per well was measured and normalized to the total cellular protein.
Three concentrations of each compound (1 mM, 2.5 mM and 10 mM) were used in the retest.

NSCs = assay: Cell death observed in NSCs in 35-mm dishes; assay type: cell-based, human
Excerpt: NSCs and dopaminergic neurons grown in 35-mm dishes were exposed to amiodarone HCl.

2102Ep cells = assay: Effect on immortal cell line 2102Ep; assay type: cell-based, human; settings: 48 hours after treatment, data not shown
Excerpt: Media was changed every day and cells were passaged every 3-4 days at a ratio of between 1:4 to 1:6.

[1] = system: hESCs and hESC-derived NSCs; assay: Comparative ATP screening on hESCs and hESC-derived NSCs (ratio ESC/NSC or NSC/ESC); set-up: hit class in primary screen / ESC/NSC: dose or concentration left out as unconfirmed; settings: NINDS primary screen, ATP relative to DMSO controls
Excerpt: Hits were defined based on the ability of a compound to affect ATP levels relative to DMSO controls on each plate.

hESCs = assay: ATP assay in hESCs (96-well); assay type: cell-based, human; set-up: dose or concentration left out as unconfirmed; settings: 48 h (FIG. 5)
Experimental: Media was changed every day for hESCs and every other day for NSCs and additionally changed prior to drug treatment. […] […] For all sampling, ESC and NSC plates were processed in parallel for one drug or control condition at a time.
as §1, §2

CCCCc1oc2ccccc2c1C(=O)c1cc(I)c(OCCN(CC)CC)c(I)c1 [Amiodarone Hydrochloride]
ATP levels in NSC population (hESC-derived NSCs; 10 (unit uncertain), 48 h (FIG. 5)): less than 15 % of the control mean
cytotoxicity (hESC-derived NSCs; Homo sapiens, NINDS primary screen, 48 hours, read-out: NSC ATP values below the control mean): ≥ 15%
effect on NSC survival among dose responsive compounds (hESC-derived NSCs; retest, FIG. 2 panel B): most dramatic effect on NSC survival
time after drug exposure at which cell death was observed in NSCs (NSCs; 35-mm dishes): 2 h
cell death in NSCs (NSCs; by 8 hours, 35-mm dishes): more than 90%
cell death in similarly treated NSCs (NSCs; within one hour of drug administration): massive cell death
effect on 2102Ep cells (2102Ep cells): no effect
hit class in primary screen [1]: NSC Killers
effect seen in hESC (ATP levels) (hESCs): intermediate between NSCs and dopaminergic neurons
